# Laboratory results from patent US20050124533A1, “Glucocorticoid blocking agents for increasing blood-brain barrier permeability stan-261con” (priority 2002, published 2005).
# Columns and labels:
# [1] = in vivo; cited from earlier work
# [2] = system: sensitive bacterial strains; conditions: cited from earlier work
# [3] = system: dopamine metabolites HVA and DOPAC in the brain; assay: Example 1: brain dopamine metabolites (HVA, DOPAC) in adrenalectomized rats with corticosterone or placebo pellets; assay type: in vivo, rat; conditions: vehicle (placebo) pellet animals; haloperidol 1 mg/kg s.c. or clozapine 15 mg/kg s.c. two hours prior to sacrifice
# Protocol: The implanted pellets contained either 100 mg corticosterone (for haloperidol experiments), 50 mg corticosterone (for clozapine experiments) or placebo. Two hours prior to sacrifice the animals were injected with either haloperidol (1 mg/kg s.c; RBI Natick, Mass.) or an equivalent volume of vehicle (0.3% tartaric acid, pH 5.3) or with either clozapine (15 mg/kg s.c.; RBI, Natick, Mass.) or vehicle (0.9% saline plus 0.8% acetic acid).
# Animals were sacrificed by decapitation during the first four hours of the light cycle, blood collected and brains removed and frozen on dry ice and stored at −80° C. Corticosterone was measured in plasma by radioimmunoassay (ICN Biochem, Costa Mesa, Calif.) to confirm adrenalectomy and corticosterone replacement. […] Brain regions were dissected within 24-72 hours of slicing. Tissue was placed in 0.1 M perchloric acid with 0.1 mM EDTA and stored for no longer than 2 weeks at −80° C.
# Dopamine metabolites homovanillic acid (HVA) and dihydroxyphenylacetic acid (DOPAC) were measured in the brains of the experimental animals. Samples were thawed, homogenized by sonication in 0.1 M perchloric acid/0.1 mM EDTA, and centrifuged for 2 minutes. Tissue pellets were dissolved in 1.0 N NaOH for protein determination (Bio-Rad, Richmond, Calif.). […] DOPAC and HVA were detected using an electrochemical detector. […]
# [4] = system: blood-brain barrier (BBB) permeability; assay: Example 5: brain methotrexate concentration in rats given mifepristone or placebo; assay type: in vivo, rat; conditions: mifepristone 200 mg 10 day sustained-release pellet; methotrexate 0.5 mg i.v.
# Protocol: Animal sacrifice is by decapitation during the first four hours of the light cycle. Blood is collected and brains removed and-frozen on dry ice for storage at −80° C. Methotrexate concentration is measured in the brains of the experimental animals.
# [5] = system: blood-brain barrier (BBB) permeability; assay: Example 3: brain Amphotericin B concentration in rats given mifepristone or placebo; assay type: in vivo, rat; conditions: mifepristone 200 mg 10-day sustained release pellet; Amphotericin B 0.1 mg i.v.
# Protocol: Animal sacrifice is by decapitation during the first four hours of the light cycle. Blood is collected and brains removed and frozen on dry ice for storage at −80° C. Amphotericin B concentration is measured in the brains of the experimental animals.
# [6] = system: blood-brain barrier (BBB) permeability; assay: Example 2: brain haloperidol and clozapine levels in rats given mifepristone or placebo pellet; assay type: in vivo, rat; conditions: mifepristone 200 mg 10-day sustained-release pellet
# Protocol: Animal sacrifice is by decapitation during the first four hours of the light cycle. Blood is collected and brains removed and frozen on dry ice for storage at −80° C.
# [7] = system: blood-brain barrier (BBB) permeability; assay: Example 4: brain ampicillin concentration in rats given mifepristone or placebo; assay type: in vivo, rat; conditions: mifepristone 200 mg 10-day sustained release pellet; ampicillin 1.5 mg i.v.
# Protocol: Animal sacrifice is by decapitation during the first four hours of the light cycle. Blood is collected and brains removed and frozen on dry ice for storage at −80° C. Ampicillin concentration is measured in the brains of the experimental animals.
# [8] = system: dopamine metabolites HVA and DOPAC in the brain; assay: Example 2: brain dopamine metabolites (HVA, DOPAC) in rats given mifepristone or placebo pellet; assay type: in vivo, rat; conditions: mifepristone 200 mg 10-day sustained-release pellet
# Protocol: Rats (male Sprague Dawley 175-200 grams) are maintained, 3 rats per cage, under controlled temperature and lighting (12 hours light/12 hours dark) with food and water ad libitum. […] Two hours prior to sacrifice the animals are injected with either haloperidol (1 mg/kg s.c; […] RBI, Natick, Mass.) or vehicle (0.9% saline plus 0.8% acetic acid). Animal sacrifice is by decapitation during the first four hours of the light cycle. Blood is collected and brains removed and frozen on dry ice for storage at −80° C. Frozen brains are sliced into 250 μm sections with a cryostat. The medial prefrontal cortex (AP 13.7 to 12.2 mm) is dissected with a scalpel, the striatum (AP 10.7 to 9.7 mm) is removed with stainless steel cannulae from frozen slices and the core and shell of the nucleus accumbens (AP 10.7 to 9.7 mm) is removed. Brain regions are dissected within 24-72 hours of slicing. […] Dopamine metabolites homovanillic acid (HVA) and dihydroxyphenylacetic acid (DOPAC) are measured in the brains of the experimental animals. […] DOPAC and HVA were detected using an electrochemical detector. […] Brain clozapine levels are analyzed by National Medical Services, Inc. (Willow Grove, PN) while brain and plasma haloperidol and reduced haloperidol and plasma clozapine levels are analyzed by Analytical Psychopharmacology Laboratories (Nathan Kline Institute, Orangeburg, N.Y.), both by gas chromotography.
# [9] = system: blood-brain barrier (BBB) permeability; assay: Example 6: brain adriamycin concentration in rats given mifepristone or placebo; assay type: in vivo, rat; conditions: mifepristone 2 mg s.c. four hours prior to sacrifice; adriamycin 0.5 mg i.v.
# Protocol: Animal sacrifice is by decapitation during the first four hours of the light cycle. Blood is collected and brains removed and frozen on dry ice for storage at −80° C. Adriamycin concentration is measured in the brains of the experimental animals.
smiles,measurement,setting,value
"Nc1nc2c(ncn2COCCO)c(=O)[nH]1 [Acyclovir, acyclovir]",concentrations achieved in the CNS as share of those achieved in plasma,[1],30-50%
"O=C(N[C@H](CO)[C@H](O)c1ccc([N+](=O)[O-])cc1)C(Cl)Cl [Chloramphenicol, chloramphenicol]",concentration effective against sensitive bacterial strains,[2],≤ 8 µg/mL
O=C(CCCN1CCC(O)(c2ccc(Cl)cc2)CC1)c1ccc(F)cc1 [haloperidol],levels of HVA and DOPAC in the brain,[3],elevated
"CC#C[C@]1(O)CC[C@H]2[C@@H]3CCC4=CC(=O)CCC4=C3[C@@H](c3ccc(N(C)C)cc3)C[C@@]21C [mifepristone, (11,17)-11-[4-(dimethylmino)phenyl]-17-hydroxy-17-(1-propynyl)estra-4,9-dien-3-one]","brain methotrexate concentration, mifepristone-treated vs placebo",[4],greater
same,"brain Amphotericin B concentration, mifepristone-treated vs placebo",[5],greater
same,"brain concentration of clozapine, mifepristone-treated vs placebo",[6]; clozapine 15 mg/kg s.c.,greater
same,"brain concentration of haloperidol, mifepristone-treated vs placebo",[6]; haloperidol 1 mg/kg s.c.,greater
same,"brain ampicillin concentration, mifepristone-treated vs placebo",[7],greater
same,"increase in brain dopamine metabolite levels following clozapine, mifepristone-treated vs placebo",[8]; clozapine 15 mg/kg s.c.,greater
same,"increase in brain dopamine metabolite levels following haloperidol, mifepristone-treated vs placebo",[8]; haloperidol 1 mg/kg s.c.,greater
same,"brain adriamycin concentration, mifepristone-treated vs placebo",[9],greater
